The test system of this test is HCV replicon HuH5-2. Put plainly: Cellular HCV-RNA replication assay (replicon system), luciferase reporter, with Alamar Blue cytotoxicity test. The format is cell-based, hepatitis C virus. The conditions noted are these: for SI (selectivity index) = CC50/EC50: CC50 from Alamar Blue fluorescence, EC50 from luciferase activity, HuH5-2 cells; for EC50: Hepatitis C virus, Huh-5-2, HuH5-2 replicon cells, substance concentration with which the luciferase activity decreases by 50% compared with the untreated replicon control, incubation 4-5 days. An excerpt:
1. Measurement of the Activity of Substances in a Cellular HCV-RNA Replication Assay (“Replicon System”)
Hepatitis C cannot as of yet be replicated reproducibly with high titres in cell culture. The activity of substances is therefore detected in the so-called replicon system. This comprises parts of the HCV genome or complete HCV genomes which are transferred into cell lines (here HuH-7 cells) of human origin. It is possible by insertion of a selection marker to obtain stable cell lines which, under selection pressure, replicate genomic or subgenomic RNA of HCV [Lohmann et al., Science 285, 110-113 (1999); Blight et al., Science 290, 1972-1974 (2000)]. The HuH5-2 cells used here harbour a selectable, luciferase-carrying, cell culture-adapted replicon as described in EP 1 043 399. The cells are cultured in Dulbecco's modified […] medium (DMEM) with 10% fetal calf serum (FCS), 1% Pen/Strep, 1% NEAA, 1% L-glutamine and 250 μg/ml Geneticin (G418). To carry out the assays described below, the cells are initially trypsinized and resuspended with the DMEM medium described above without G418. Depending on the assay, the cells are seeded in 24-well or 384-well plates. Depending on the reading or assay method used, transparent or white assay plates coated for cell culture are used.
The test compounds are made up as 50 mM stock solution in DMSO. To determine the EC50 values, the substances subsequently undergo a serial two-fold dilution in DMEM. The dilutions are transferred as doublets to the cell culture plates. The trypsinized cells which have been resuspended in medium are then added. The final concentration of the test substances in the cell culture wells is for example 300 μM to 0.0001 μM. Interferon-alpha serves as reference substance in concentrations of 60 IU/ml to 1 IU/ml. Antimycin-alpha serves as cytotoxicity control in concentrations of 2 μM to 0.03,M. Untreated cells serve as reference. The plates are then incubated at 37° C. under 5% CO2 for 4-5 days. The various measurements and the quantification of the HCV replicon RNA then take place.
Alamar Blue is a water-soluble redox indicator which is reduced as a function of the metabolic activity of the cells to be investigated. The Alamar Blue test is used as quantitative cytotoxicity assay. For this purpose, the cells are seeded with the appropriate test substances (see above) in white 384-well cell culture plates and incubated correspondingly at 37° C. under 5% CO2 for 4 days. 4 to 6 hours before the actual measurement, 5 μl of Alamar Blue are added per well. The fluorescence is then measured at an […]. If this test is to be followed by chemiluminescence measurement (see below) on the same plate, the dye solution is aspirated off from the cells and the latter are subsequently washed once with PBS. The PBS is likewise aspirated off again from the cells.
A reporter gene is introduced into the HCV replicon HuH5-2, in this case the gene for the luciferase enzyme of Photinus pyralis. After the addition of the luciferase reagent (20 mM Tris/HCl, 20 mM tricine, 2.67 mM MgSO4, 0.1 mM EDTA, 33.3 mM DTT, 0.27 mM coenzyme A, 0.47 mM luciferin, 0.53 mM ATP, pH 7.8) to the cells, the chemiluminescence is measured in a luminometer. Normally, the photons are measured in a period of from 10 sec to 60 sec.
The following data can be determined from the assay plates: • CC50=substance concentration in μM with which the Alamar Blue fluorescence decreases by 50% compared with the untreated control; • EC50=substance concentration with which the luciferase activity decreases by 50% compared with the untreated replicon control; • SI (selectivity index)=CC50/EC50. […]
On the technique in general: A replicon is a self-replicating genome or part of one, used to study replication in cells.

Where only a bound is given, the exact number is not on record here.

Usually EC50 stands for the concentration that produces a half-maximal response. High values mean a less potent agent, low ones a more potent agent. Consider `CC(C)N(C(=O)[C@@H]1CC[C@@H](C)C[C@@H]1O)c1sc(-c2ccccc2)cc1C(=O)O` (single isomer, unassigned) [Example 54], for which the “SI (selectivity index) = CC50/EC50” value is above 277 and the concentration for a half-maximal effect (EC50) amounted to 180 nM.

For `CC(C)N(c1sc(-c2ccccc2)cc1C(=O)O)C(=O)[C@H]1CC[C@H](C)CC1` [Example 1, 2-[Isopropyl-(trans-4-methylcyclohexanecarbonyl)amino]-5-phenylthiophene-3-carboxylic acid], the “SI (selectivity index) = CC50/EC50” value is listed as above 50 and the concentration for a half-maximal effect (EC50) was found to be 1000 nM.

Consider `CC(C)N(c1sc(-c2ccc(F)cc2)cc1C(=O)O)C(=O)[C@H]1CC[C@H](C)CC1` [Example 19, 5-(4-Fluorophenyl)-2-{isopropyl[(trans-4-methylcyclohexyl)carbonyl]amino}thiophene-3-carboxylic acid], for which the “SI (selectivity index) = CC50/EC50” value is above 100 and the EC50 amounted to 400 nM.

In the case of `CC(C)N(c1sc(-c2cccnc2)cc1C(=O)O)C(=O)[C@H]1CC[C@H](C)CC1` [Example 30], the “SI (selectivity index) = CC50/EC50” value was above 38 and a half-maximal response (EC50) required 1300 nM.

Regarding `CC(C)N(c1sc(C2CCN(S(C)(=O)=O)CC2)cc1C(=O)O)C(=O)[C@H]1CC[C@H](C)CC1` [Example 35, 2-{Isopropyl[(trans-4-methylcyclohexyl)carbonyl]amino}-5-[1-(methylsulfonyl)piperidin-4-yl]thiophene-3-carboxylic acid], the “SI (selectivity index) = CC50/EC50” value was above 18 and the EC50 is 2800 nM.

For the molecule `C[C@H]1CC[C@H](C(=O)N(c2sc(-c3ccccc3)cc2C(=O)O)C2CCOCC2)CC1` [Example 42, 2-[[(trans-4-Methylcyclohexyl)carbonyl](tetrahydro-2H-pyran-4-yl)amino]-5-phenylthiophene-3-carboxylic acid], the “SI (selectivity index) = CC50/EC50” value is above 100 and the concentration for a half-maximal effect (EC50) turned out to be 500 nM.

`COCC(C)N(C(=O)C1CCC(C)CC1)c1sc(-c2ccccc2)cc1C(=O)O` (centres unmarked) [Example 49]: the “SI (selectivity index) = CC50/EC50” value is given as above 63 and the midpoint of the response, the EC50, lay at 800 nM.

The values above are taken from patent US20070099929A1, “Substituted thiophenes” (AiCuris GmbH & Co. KG, priority 2003, published 2007).
